Test results as given in patent EP0746294B1, “ABSORPTION ENHANCERS FOR TOPICAL PHARMACEUTICAL FORMULATIONS” (ODONTEX, INC., priority 1993, dated 1995).
Where two headings read alike, the source gives them in different places.

Legend:
[1] = cited from earlier work
[2] = Penetration of drugs through shed snake skin pretreated with enhancer (Franz diffusion cell, HPLC); conditions: for RE (Relative enhancement compared to Azone®) / R.E. (Relative enhancement): 32°C; for R.E. (Relative enhancement): pH 7.0, relative to control (=1)
Description: The penetration promoting activity of DAIPD was compared to that of Azone®, taken as a typical enhancer, using shed snake skin as a model membrane. […] The permeants were selected to provide examples of basic drugs (clonidine), neutral drugs (hydrocortisone) and acidic drugs (indomethacin).
Shed snake skins were prepared as previously reported (Büyüktimkin, S., Büyüktimkin, N., and Rytting, J.H., Synthesis and enhancing effect of dodecyl 2-(N,N-dimethylamino) propionate on the transepidermal delivery of indomethacin, clonidine, and hydrocortisone, Pharm. Res., 10: 1632-1637, 1993) and as described in U.S. Patents No. 4,980,378 and No. 5,082,866, the disclosures of which are incorporated herein by reference. Shed snake skins were stored at -20°C. Before the experiment they were allowed to come to room temperature at least 12 hours before use. To reduce the variability of results, pieces cut from the same whole snake skin were used for each set of experiments
Indomethacin, clonidine, and hydrocortisone were assayed by HPLC procedures as described earlier; see Büyüktimkin et al., (1993), above.
Pieces of shed snake skin (approximately 3 x 3 cm) were pretreated with 15 µl of enhancer (divided into three 5 µl portions) 2 hr before the experiment. After mounting the skin on top of a Franz receptor cell filled with pH 7.0 (0.1 M) phosphate buffer, the donor cell was clamped on the top of the receptor cell. An aliquot of 0.5 ml of a suspension of hydrocortisone or indomethacin, prepared by suspending 50 mg or 25 mg of the drugs respectively, in 25 ml of the same buffer and stirring for 24 hr at 32°C, or a solution of clonidine (2%) in the same buffer were added to the donor cell. The solution in the receptor compartment was stirred by a magnetic stirrer. At appropriate time intervals samples were withdrawn from the receptor compartment and analyzed by HPLC.

porcine esterase = test: Biodegradability of the enhancer in the presence of porcine esterase (HPLC disappearance of enhancer peak); type: in vitro ADME; conditions: 32°C, pH 7.0
Description: A 0.1 ml aliquot of porcine esterase (235 units per mg protein) was diluted to 100 ml with pH 7.0 phosphate buffer. The enhancer solution was prepared by dissolving -12 mg (-0.045 mmoles) of the enhancer in 10 ml acetonitrile. An aliquot of 100 µl of this solution was transferred into a 10 ml volumetric flask. 9.8 ml of pH 7.0 buffer and 100 µl diluted esterase solution were added. The mixture was kept in a water bath at 32°C with constant stirring. The disappearance of the enhancer peak was monitored by HPLC. The absorbance wavelength was 204 nm. The solvent system was a mixture of acetonitrile and 0.02 M aqueous sodium hexanesulfonate (7:4) with a flow rate of 0.9 ml/min. The retention time of DAIPD was 3.95 min. The kinetic runs were done in triplicate.
The existence of esterase activity has been reported in shed snake skin (Nghiem, B.T., and Higuchi, T., Esterase activity in snake skin, Int. J. Pharm. 44: 125-130, 1988) . To confirm the biodegradability of DAIPD, its fragmentation in the presence of porcine esterase was examined. […] Esterase-catalyzed biodegradability of the enhancer is therefore confirmed. […] (Hirvonen, J., Paronen, P., and Urtti, A., Reversible enhancement of transdermal propranolol by dodecyl N,N-dimethylamino acetate, 18th International Symposium on Controlled Release of Bioactive Materials, July 8-11, 1991, Amsterdam, p 31).

[3] = n-octanol/pH 7.0 buffer; cited from earlier work

| Compound | RE (Relative enhancement compared to Azone®) ([2]; Clonidine) | RE (Relative enhancement compared to Azone®) ([2]; Hydrocortisone) | RE (Relative enhancement compared to Azone®) ([2]; Indomethacin) | R.E. (Relative enhancement) ([2]; clonidine) | R.E. (Relative enhancement) ([2]; hydrocortisone) | R.E. (Relative enhancement) ([2]; indomethacin) | log P [3] | other results |
| --- | --- | --- | --- | --- | --- | --- | --- | --- |
| CCCCCCCCCCCCN1CCCCCC1=O [Azone®, 1-dodecylazacycloheptane-2-one] | 1 | 1 | 1 | 13 | 41 | 46 |  | enhancement of transdermal delivery of propranolol following pretreatment ([1]; after a week): the enhancement still existed; RE (Relative enhancement compared to Azone®) ([2]; Prazosin (45% ethanolic solution)): 1; RE (Relative enhancement compared to Azone®) ([2]; Prostaglandin E1): 1 |
| CCCCCCCCCCCC(=O)OC(C)CN(C)C (stereo not shown) [DAIPD, 1-(N,N-dimethylamino)-2-propanol dodecanoate] | approximately two-fold | approximately two-fold | approximately equal to that of Azone® | 27 | 88 | 53 |  | half-life at 45 µM (porcine esterase; pig, porcine esterase in phosphate buffer, degradation): 1.32 h; kobs (porcine esterase; pseudo first order degradation): 0.0087 min⁻¹; Lag times ([2]; permeation of Clonidine, standard deviation in brackets): No lag time enhancement was found |
| CCCCCCCCCCCCOC(=O)CN(C)C [DDAA, dodecyl N,N-dimethylamino acetate] |  |  |  |  |  |  |  | enhancement of transdermal delivery of propranolol following pretreatment ([1]; after 4 days): no longer enhanced |
| Clc1cccc(Cl)c1N=C1NCCN1 [clonidine] |  |  |  |  |  |  | 0.4 |  |
| C[C@]12CCC(=O)C=C1CC[C@@H]1[C@@H]2[C@@H](O)C[C@@]2(C)[C@H]1CC[C@]2(O)C(=O)CO [hydrocortisone] |  |  |  |  |  |  | 0.8 |  |
| COc1ccc2c(c1)c(CC(=O)O)c(C)n2C(=O)c1ccc(Cl)cc1 [indomethacin] |  |  |  |  |  |  | 1.2 |  |
